Results reported in patent publication US20260022098A1, “BULLEYACONITINE A DERIVATIVE WITH ANALGESIC ACTIVITY, AND PREPARATION METHOD AND APPLICATION THEREOF” (priority 2023, published 2026).

Legend:
Kunming mice [1] = assay: Acute toxicity / median lethal dose (LD50) determination, subcutaneous injection; format: in vivo; parameters: key to Acute toxicity: if death occurred, (+) represented as positive; if no death occurred, (−) represented as negative; settings: mice administered 20 mg/kg subcutaneously, presence of death within 24 h
Experimental: (§1) The experimental animals were Kunming mice (male:female=1:1), weighed 22+2 g, which were provided by Chengdu dossy experimental animals Co., ltd., China. The mice were kept in the animal room of the School of Life Science and Engineering, Southwest Jiaotong University, where the animal room was set at a temperature of 23±2° C., a humidity of […] and a photoperiod of 16:8 h (L:D). Before the experiment, the mice were freely fed for 2-3 days with water and feed to adapt to the new environment. Then, the mice were treated by water and food fasting for 12 h. 10 animals were allocated to each group to ensure that there are at least 6 sets of valid data in each group. The animal experiments were carried out in strict accordance with the national regulations on the management of experimental animals.
(§2) The compounds prepared in the examples provided herein (test sample set) and bulleyaconitine A (positive control set) were all dissolved with 0.1 mol/L HCl according to a molar ratio of 1:1, and then diluted with physiological saline to a concentration to be determined. Blank control was physiological saline containing 0.1 mol/L HCl. The animals in the control groups were subjected to the same treatment as those in experimental groups except that samples to be test were replaced with physiological saline.
(2) Median Lethal Dose (LD50) Determination
The sample to be tested was dissolved with 0.1 mol/L HCl according to the amount of the substance ratio of 1:1, and diluted with physiological saline according to the required concentration. 10 mice in each group were randomly selected, half of which were male and half of which were female, and were placed in independent cages. Each mouse was injected subcutaneously with different sample solutions to be tested according to a dose of 0.1 mL/10 g body weight. In the preliminary toxicity experiment, the measured concentration was 20 mg/kg, and then based on the survival rate of the experimental animals in the preliminary experiment, the sample to be tested was set to at least 5 groups with different concentration dose according to the proportional series. The survival rate of mice within 24 h was recorded. The obtained dose-survival rate data was input into the SPSS software (version 17.2), and the LD50 of the sample was calculated according to the Probit regression method.

Kunming mice [2] = assay: Analgesic activity by acetic acid-induced writhing method (writhing inhibition rate, ED50); format: in vivo; settings: Mus musculus, sc, read-out: Analgesia rate (%) ± SEM
Experimental: as §1, §2
(1) Determination of Analgesic Activity Through an Acetic Acid-Induced Writhing Method
10 mice were randomly selected, male:female=1:1, were placed in independent cages. Each mouse was injected subcutaneously with the sample solution mentioned above at a dose of 0.1 mL/10 g body weight. After 15 min, a 0.7% acetic acid solution was intraperitoneally injected. A number of writhing reactions in each mouse within 15 minutes was recorded. The group that the mice were injected with physiological saline subcutaneously was the blank group; the group that the mice were injected with the sample to be tested was the experimental group; and the group that the mice were injected with bulleyaconitine A was the positive group. The analgesic activity was represented by a percentage of the reduced number of writhing compared to the blank group (writhing inhibition rate), which were specifically as follows: writhing inhibition rate (analgesic activity)=(average number of writhing times in the blank group-average number of writhing times in the experimental group)/average number of writhing times in the blank group×100%.
Median Effective Dose (ED50) Determination
The sample to be tested was dissolved with 0.1 mol/L HCl according to the amount of the substance ratio of 1:1, and diluted with physiological saline according to the proportional series to obtain at least 5 groups with different dose concentrations. The writhing inhibition rate of each dose group was tested according to the acetic acid-induced writhing method mentioned above. The obtained dose-writhing inhibition data was entered into the statistical product and service solutions (SPSS) software (version 17.2), and the ED50 of the sample to be tested was calculated through the Probit regression method.

SMILES	Acute toxicity (Kunming mice [1])	inhibition in vivo at 0.05 mg/kg (Kunming mice [2]) [%]
CCN1C[C@]2(COC)CC[C@H](OC)[C@@]34C5C[C@]6(O)[C@@H](OC)C[C@@](OC)(C5[C@H]6OC(=O)c5ccc(OC)cc5)C([C@H](OC)C23)[C@@H]14 (some centres unmarked) [Compound 1]	+	25.5 ± 2.9
CCO[C@]12C[C@H](OC)[C@@]3(O)CC(C1[C@H]3OC(=O)c1ccc(OC)cc1)[C@]13C4[C@@H](OC)C2[C@H]1N(CC)C[C@]4(COC)CC[C@@H]3OC (some centres unmarked) [Compound 2]	+	41.1 ± 1.8
CCN1C[C@@]2(COC)C3[C@@H](OC)C4[C@@H]1[C@@]3(C1C[C@]3(O)[C@@H](OC)C[C@@]4(OC)C1[C@H]3O)[C@@H](OC)C[C@H]2O (some centres unmarked) [Compound 3]	−	9.78 ± 1.9
CCO[C@]12C[C@H](OC)[C@@]3(O)CC(C1[C@H]3O)[C@]13C4[C@@H](OC)C2[C@H]1N(CC)C[C@]4(COC)CC[C@@H]3OC (some centres unmarked) [Compound 4]	−	5.63 ± 1.1
CCO[C@]12C[C@H](OC)[C@@]3(OC(=O)C(C)Cl)CC(C1[C@H]3OC(=O)C(C)Cl)[C@]13C4[C@@H](OC)C2[C@H]1N(CC)C[C@]4(COC)CC[C@@H]3OC (some centres unmarked) [Compound 7]	−	22.8 ± 3.3
CCO[C@]12C[C@H](OC)[C@@]3(OC(=O)C4CC4)CC(C1[C@H]3OC(=O)C1CC1)[C@]13C4[C@@H](OC)C2[C@H]1N(CC)C[C@]4(COC)CC[C@@H]3OC (some centres unmarked) [Compound 8]	−	37.1 ± 1.2
CCN1C[C@]2(COC)CC[C@H](OC)[C@@]34C5C[C@]6(OC(=O)c7ccc(OC)cc7)[C@@H](OC)C[C@@](OC(C)=O)(C5[C@H]6OC(=O)c5ccc(OC)cc5)C([C@H](OC)C23)[C@@H]14 (some centres unmarked) [Compound 9]	−	33.5 ± 1.9
CCN1C[C@]2(COC)CC[C@H](OC)[C@@]34C5C[C@]6(OC(=O)C7CC7)[C@@H](OC)C[C@@](OC(C)=O)(C5[C@H]6OC(=O)c5ccc(OC)cc5)C([C@H](OC)C23)[C@@H]14 (some centres unmarked) [Compound 10]	−	15.2 ± 1.9
CCN1C[C@]2(COC)CC[C@H](OC)[C@@]34C5C[C@]6(OC(=O)C7CCCCC7)[C@@H](OC)C[C@@](OC(C)=O)(C5[C@H]6OC(=O)c5ccc(OC)cc5)C([C@H](OC)C23)[C@@H]14 (some centres unmarked) [Compound 11]	−	35.1 ± 1.2
CCO[C@]12C[C@H](OC)[C@@]3(OC(=O)C4CC4)CC(C1[C@H]3OC(=O)c1ccc(OC)cc1)[C@]13C4[C@@H](OC)C2[C@H]1N(CC)C[C@]4(COC)CC[C@@H]3OC (some centres unmarked) [Compound 16]	−	36.7 ± 1.2
CCO[C@]12C[C@H](OC)[C@@]3(OC(=O)c4ccc(Cl)s4)CC(C1[C@H]3OC(=O)c1ccc(Cl)s1)[C@]13C4[C@@H](OC)C2[C@H]1N(CC)C[C@]4(COC)CC[C@@H]3OC (some centres unmarked) [Compound 18]	−	13.4 ± 0.6
CCO[C@]12C[C@H](OC)[C@@]3(OC(=O)c4cccs4)CC(C1[C@H]3OC(=O)c1ccc(OC)cc1)[C@]13C4[C@@H](OC)C2[C@H]1N(CC)C[C@]4(COC)CC[C@@H]3OC (some centres unmarked) [Compound 19]	−	7.13 ± 2.8
CCO[C@]12C[C@H](OC)[C@@]3(OC(=O)c4ccc(Cl)s4)CC(C1[C@H]3OC(=O)c1ccc(OC)cc1)[C@]13C4[C@@H](OC)C2[C@H]1N(CC)C[C@]4(COC)CC[C@@H]3OC (some centres unmarked) [Compound 20]	−	0
CCN1C[C@]2(COC)CC[C@H](OC)[C@@]34C5C[C@]6(OC(=O)c7cccs7)[C@@H](OC)C[C@@](OC(C)=O)(C5[C@H]6OC(=O)c5ccc(OC)cc5)C([C@H](OC)C23)[C@@H]14 (some centres unmarked) [Compound 21]	−	0
CCN1C[C@]2(COC)CC[C@H](OC)[C@@]34C5C[C@]6(OC(=O)c7ccc(Cl)s7)[C@@H](OC)C[C@@](OC(C)=O)(C5[C@H]6OC(=O)c5ccc(OC)cc5)C([C@H](OC)C23)[C@@H]14 (some centres unmarked) [Compound 22]	−	6.27 ± 2.3
CCN1C[C@]2(COC)CC[C@H](OC)[C@@]34C5C[C@]6(OC(=O)C7CCOCC7)[C@@H](OC)C[C@@](OC(C)=O)(C5[C@H]6OC(=O)c5ccc(OC)cc5)C([C@H](OC)C23)[C@@H]14 (some centres unmarked) [Compound 25]	−	23 ± 0.8
CCN1C[C@]2(COC)CC[C@H](OC)[C@@]34C5C[C@]6(OC(=O)C7CCOCC7)[C@@H](OC)C[C@@](OC)(C5[C@H]6OC(=O)C5CCOCC5)C([C@H](OC)C23)[C@@H]14 (some centres unmarked) [Compound 26]	−	30.5 ± 1
CCN1C[C@]2(COC)CC[C@H](OC)[C@@]34C5C[C@]6(OC(=O)c7cccnc7)[C@@H](OC)C[C@@](OC)(C5[C@H]6OC(=O)c5cccnc5)C([C@H](OC)C23)[C@@H]14 (some centres unmarked) [Compound 30]	−	31.1 ± 2.4
CCN1C[C@]2(COC)CC[C@H](OC)[C@@]34C5C[C@]6(OC(=O)c7ccc(OC)cc7)[C@@H](OC)C[C@@](OC)(C5[C@H]6OC(=O)c5ccc(OC)cc5)C([C@H](OC)C23)[C@@H]14 (some centres unmarked) [Compound 31]	−	17 ± 2.2
CCN1C[C@]2(COC)CC[C@H](OC)[C@@]34C5C[C@]6(OC(=O)c7ccco7)[C@@H](OC)C[C@@](OC)(C5[C@H]6OC(=O)c5ccco5)C([C@H](OC)C23)[C@@H]14 (some centres unmarked) [Compound 32]	−	37.3 ± 1.4
CCN1C[C@]2(COC)CC[C@H](OC)[C@@]34C5C[C@]6(OC(=O)c7ccco7)[C@@H](OC)C[C@@](OC)(C5[C@H]6OC(=O)c5ccc(OC)cc5)C([C@H](OC)C23)[C@@H]14 (some centres unmarked) [Compound 33]	−	30.2 ± 2.6
CCN1C[C@]2(COC)CC[C@H](OC)[C@@]34C5C[C@]6(OC(=O)C7CCCCC7)[C@@H](OC)C[C@@](OC)(C5[C@H]6OC(=O)C5CCCCC5)C([C@H](OC)C23)[C@@H]14 (some centres unmarked) [Compound 34]	−	37 ± 1.4
CCOc1ccc(C(=O)O[C@@H]2C3C4C[C@]2(OC(=O)c2ccc(OCC)cc2)[C@@H](OC)C[C@]3(OCC)C2[C@H](OC)C3[C@@]5(COC)CC[C@H](OC)[C@@]43[C@@H]2N(CC)C5)cc1 (some centres unmarked) [Compound 35]	−	0
CCOc1ccc(C(=O)O[C@]23CC4C([C@H]2OC(=O)c2ccc(OC)cc2)[C@](OCC)(C[C@@H]3OC)C2[C@H](OC)C3[C@@]5(COC)CC[C@H](OC)[C@@]43[C@@H]2N(CC)C5)cc1 (some centres unmarked) [Compound 36]	−	13.6 ± 2.5
CCOc1ccc(C(=O)O[C@]23CC4C([C@H]2OC(=O)c2ccc(OC)cc2)[C@](OC(C)=O)(C[C@@H]3OC)C2[C@H](OC)C3[C@@]5(COC)CC[C@H](OC)[C@@]43[C@@H]2N(CC)C5)cc1 (some centres unmarked) [Compound 37]	−	21.2 ± 1.7
